Results taken from US9326513B2, “Fungicidal compositions” (Syngenta Participations AG, priority 2011, dated 2016).

Assays:
Assay type in all cases: in vivo
Conditions in all cases: foliar, compared to untreated control leaf disks, read-out: disease control
[1] = system: Blumeria graminis f. sp. tritici (Erysiphe graminis f. sp. tritici); assay: Blumeria graminis f. sp. tritici / wheat / leaf disc preventative (powdery mildew on wheat)
Outline: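 Wheat leaf segments (cv. Kanzler) on agar were sprayed with formulated compound in water, inoculated with powdery mildew 1 day later, and kept at 20° C, 60% rh (24 h dark, then 12 h light/12 h dark). Percent disease control versus untreated scored 6-8 days after application; tested at 200 ppm.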

[2] = system: Puccinia recondita f. sp. tritici; assay: Puccinia recondita f. sp. tritici / wheat / leaf disc preventative (brown rust)
Excerpt: Puccinia recondita f. sp. tritici/Wheat/Leaf Disc Preventative (Brown Rust) Wheat leaf segments cv. Kanzler were placed on agar in multiwell plates (24-well format) and sprayed with the formulated test compound diluted in water. The leaf disks were inoculated with a spore suspension of the fungus 1 day after application.

[3] = system: Puccinia recondita f. sp. tritici; assay: Puccinia recondita f. sp. tritici / wheat / leaf disc curative (brown rust)
Method: Puccinia recondita f. sp. tritici/Wheat/Leaf Disc Curative (Brown Rust) Wheat leaf segments cv. Kanzler are placed on agar in multiwell plates (24-well format). The leaf segments are inoculated with a spore suspension of the fungus. Plates were stored in darkness at 19° C. and 75% rh. The formulated test compound diluted in water was applied 1 day after inoculation.

Pyrenophora teres = Pyrenophora teres / barley / leaf disc preventative (net blotch)
Excerpt: Pyrenophora teres/Barley/Leaf Disc Preventative (Net Blotch) Barley leaf segments cv. Hasso were placed on agar in a multiwell plate (24-well format) and sprayed with the formulated test compound diluted in water. The leaf segments were inoculated with a spore suspension of the fungus 2 days after application.

Measured: pest or weed control at 200 ppm

CCN(/C=N/c1cc(Br)c(OCCCC(C)C)nc1C)CC [Q.001]
≥ 50%: all assays above

CCN/C=N/c1cc(Br)c(OCCCC(C)C)nc1C [Q.004]
≥ 50%: all assays above

CCN(C)/C=N/c1cc(Br)c(OCC[C@H]2CC[C@@H](O)CC2)nc1C [Q.005]
≥ 50%: all assays above

CCN(C)/C=N/c1cc(C)c(OCCCC(C)C)nc1C [Q.007]
≥ 50%: all assays above

CCN(C)/C=N/c1cc(Br)c(OCCc2ccc(OC)cc2)nc1C [Q.011]
≥ 50%: all assays above

CCN(C)/C=N/c1cc(Br)c(OCCc2ccc(Br)cc2)nc1C [Q.012]
≥ 50%: all assays above

CCN(C)/C=N/c1cc(Br)c(OC(C)CCc2ccc(OC)cc2)nc1C (stereo not shown) [Q.013]
≥ 50%: all assays above

CCN(C)/C=N/c1cc(Br)c(OCCCc2ccc(OC)cc2)nc1C [Q.014]
≥ 50%: all assays above

CCN(C)/C=N/c1cc(Br)c(OCCC[Si](C)(C)C)nc1C [Q.015]
≥ 50%: all assays above

CCN(C)/C=N/c1cc(Br)c(OCC#Cc2ccccc2)nc1C [Q.016]
≥ 50%: all assays above

CCN(C)/C=N/c1cc(Br)c(OC2CCc3ccc(OC)cc3C2)nc1C (stereo not shown) [Q.018]
≥ 50%: all assays above

CCN(C)/C=N/c1cc(Br)c(OC2CCc3c(cccc3OC)C2)nc1C (stereo not shown) [Q.019]
≥ 50%: all assays above

CCN(C)/C=N/c1cc(Br)c(OCC#Cc2cccc(OC)c2)nc1C [Q.020]
≥ 50%: all assays above

CCN(C)/C=N/c1cc(Br)c(OC/C=C\c2cccc(OC)c2)nc1C [Q.023]
≥ 50%: all assays above

CCN(C)/C=N/c1cc(Br)c(OC2CCc3cccc(OC)c3C2)nc1C (stereo not shown) [Q.024]
≥ 50%: all assays above

CCN(C)/C=N/c1cc(Br)c(OC2CCc3cc(F)ccc3C2)nc1C (stereo not shown) [Q.025]
≥ 50%: all assays above

CCN(C)/C=N/c1cc(Br)c(OCCCCc2ccc(F)cc2)nc1C [Q.026]
≥ 50%: all assays above

CCN(C)/C=N/c1cc(Br)c(OC2CCC3CCCCC3C2)nc1C (stereo not shown) [Q.027]
≥ 50%: all assays above

CCN(C)/C=N/c1cc(Br)c(OCC2CC=CCC2)nc1C (stereo not shown) [Q.029]
≥ 50%: all assays above

CCN(C)/C=N/c1cc(Br)c(OCC2CCCC(C#N)C2)nc1C (stereo not shown) [Q.032]
≥ 50%: all assays above

CCN(C)/C=N/c1cc(Br)c(OC2CCc3ccc(C(C)=O)cc3C2)nc1C (stereo not shown) [Q.033]
≥ 50%: all assays above

C=CCCCOc1nc(C)c(/N=C/N(C)CC)cc1Br [Q.034]
≥ 50%: all assays above

CCN(C)/C=N/c1cc(Br)c(OCCCC(C)O)nc1C (stereo not shown) [Q.035]
≥ 50%: all assays above

CCN(C)/C=N/c1cc(Br)c(OC2CCN(C(=O)OC(C)(C)C)CC2)nc1C [Q.038]
≥ 50%: all assays above

CCN(C)/C=N/c1cc(Br)c(OC2CCc3ccc(/C(C)=N/OC)cc3C2)nc1C (stereo not shown) [Q.039]
≥ 50%: all assays above

CCN(C)/C=N/c1cc(Br)c(OC2CCc3ccc(C(C)O)cc3C2)nc1C (stereo not shown) [Q.044]
≥ 50%: all assays above

CCN(C)/C=N/c1cc(Br)c(OCCCCc2ccc(OC)cc2)nc1C [Q.046]
≥ 50%: all assays above

CCN(C)/C=N/c1cc(Br)c(OCCCCc2ccc(Br)cc2)nc1C [Q.047]
≥ 50%: all assays above

CCN(C)/C=N/c1cc(Br)c(OC2CCNCC2)nc1C [Q.053]
≥ 50%: [1] | Pyrenophora teres

CCN(C)/C=N/c1cc(Br)c(OC2CCc3ccc(Br)cc3C2)nc1C (stereo not shown) [Q.067]
≥ 50%: Pyrenophora teres

CCN(C)/C=N/c1cc(Br)c(OCCCC=C(C)C)nc1C [Q.079]
≥ 50%: Pyrenophora teres

CCN(C)/C=N/c1cc(Br)c(OCc2snc(-c3ccc(F)cc3)c2Br)nc1C [Q.125]
≥ 50%: [1] | [2] | Pyrenophora teres

CCN(C)/C=N/c1cc(Br)c(OCc2cccc(C(C)C)c2)nc1C [Q.169]
≥ 50%: [2] | [3] | Pyrenophora teres

CCN(C)/C=N/c1cc(Br)c(OC2Cc3cc(Br)c(OC)cc3C2)nc1C (stereo not shown) [Q.202]
≥ 50%: [1] | [2] | Pyrenophora teres

C=C(C)CC(CC(=C)C)Oc1nc(C)c(/N=C/N(C)CC)cc1Br [Q.232]
≥ 50%: [2] | [3] | Pyrenophora teres

CCN(C)/C=N/c1cc(Br)c(OC(C)c2cccs2)nc1C (stereo not shown) [Q.237]
≥ 50%: [2] | Pyrenophora teres

CCN(C)/C=N/c1cc(Br)c(OC(C)c2ccsc2)nc1C (stereo not shown) [Q.245]
≥ 50%: [1] | [2] | Pyrenophora teres

CCc1cc(/N=C/N(C)CC)c(C)nc1O[C@H]1CC[C@H](C(C)C)CC1 [Q.252]
≥ 50%: [2] | Pyrenophora teres

C#Cc1cc(/N=C/N(C)CC)c(C)nc1O[C@H]1CC[C@H](C(C)C)CC1 [Q.253]
≥ 50%: [2] | [3] | Pyrenophora teres

CCN(C)/C=N/c1cc(Br)c(OC(C)c2cc(F)cc(F)c2)nc1C (stereo not shown) [Q.256]
≥ 50%: Pyrenophora teres

CCN(C)/C=N/c1cc(Br)c(OCc2cccc(C#Cc3ccccc3)c2)nc1C [Q.311]
≥ 50%: [2] | [3] | Pyrenophora teres

COc1ccccc1COc1ccc(/N=C/N(C)C(C)C)c(C)n1 [Q.366]
≥ 50%: [2] | [3] | Pyrenophora teres

COc1cc(COc2ccc(/N=C/N(C)C(C)C)c(C)n2)cc(OC)c1 [Q.377]
≥ 50%: [2] | [3] | Pyrenophora teres

C/C=C/c1cc(/N=C/N(C)CC)c(C)nc1OCc1ccccc1C [Q.385]
≥ 50%: [1] | [2] | [3]

CCCOc1nc(C)c(/N=C/N(C)CC)cc1Br [Q.388]
≥ 50%: [1] | [2] | [3]

CCN(C)/C=N/c1cc(Br)c(OCc2ccccc2C)nc1Br [Q.397]
≥ 50%: [1] | [2] | [3]

CCN(C)/C=N/c1cc(Br)c(OCc2ccccc2C)nc1C1CC1 [Q.401]
≥ 50%: [1] | [2] | [3]
